Legend:
CDK7/CyclinH/MAT1 = molecular target: T1, CDK7/CyclinH/MAT1 (Homo sapiens, UniProt P50613); assay: LanthaScreen Eu Kinase Binding Assay, CDK7; details: tracer 236, read-out: CDK7 (activity range), Kd
T1 construct: His; purchased Carna Biosciences
Protocol: (§1) This protocol describes how the LanthaScreen Eu Kinase Binding Assay was performed to determine dissociation constants (Kd) of compounds of general formula (I) and CDK/Cyclin complexes. The principle behind this assay is based upon the binding and displacement of an Alexa Fluor 647-labeled tracer, which binds to the active site of kinases. Binding of the tracer to the kinase is detected using a Eu-labeled antibody. Simultaneous binding of both the tracer and antibody to the kinase gives rise to a FRET-signal. Binding of an inhibitor to the kinase competes for binding with the tracer, resulting in a loss of FRET.
(§2) The compounds of general formula (I) summarized in Table 1 were diluted from a 10 mM DMSO stock solution 1:10 in a total volume of 15 μL DMSO. This compound predilution was then serial diluted 1:3 over 8 steps in DMSO and briefly spun down. Each compound solution was now diluted 1:33.33 in kinase buffer (HEPES: 20 mM, pH: 8.0; MgCl2: 10 mM; DTT: 1 mM; Brij-35: 0,01%), mixed thoroughly and spun down. For every sample, 5 μL of the diluted compound were mixed with 5 μL tracer working solution (e.g. 60 nM tracer 236 in kinase buffer for CDK2/Cyclin A) and 5 μL CDK/Cyclin/Anti-GST-AB-working solution (e.g. 15 nM CDK2/Cyclin A, 1:250 dilution of Anti-GST-AB in kinase buffer) in a well of a small volume 384 well plate (Corning Incorporated, Corning, N.Y., USA; order no. 3673). The tracer concentration was adjusted to its dissociation constant (Kd) for the CDK/Cyclin, which was 30 nM for CDK2/Cyclin A, CDK7/Cyclin H and CDK9/Cyclin T1, 20 nM for CDK8/Cyclin C, and 35 nM for CDK9/Cyclin K. For negative controls, in each well 5 μL of DMSO working solution (3% DMSO diluted in kinase buffer) was mixed with 5 μL Anti-GST-AB working solution (e.g. 1:250 dilution of Anti-GST-AB in kinase buffer for CDK2/Cyclin A) and 5 μL Tracer working solution (e.g. 60 nM Tracer 236 in kinase buffer for CDK2/Cyclin A). For positive controls, in each well 5 μL of DMSO working solution (3% DMSO diluted in kinase buffer) was mixed with 5 μL CDK/Cyclin/Anti-GST-AB-working solution: (e.g. 15 nM CDK2/Cyclin A, 1:250 dilution of Anti-GST-AB in kinase buffer) and 5 μL Tracer working solution (e.g. 60 nM Tracer 236 in kinase buffer for CDK2/Cyclin A). Positive and negative controls were calculated from at least 8 different sample wells. The 384 well plates were mixed in a Teleshaker plate mixer (Beckman Coulter, Brea, Calif., USA) at 2000 rpm for 40 sec, and incubated for 1 h at room temperature before reading. The FRET signal was measured at 340 nm excitation, 665 nm and 615 nm emission (for the kinase tracer and LanthaScreen Eu-AB, respectively) with an Envision spectrophotometer (Perkin Elmer, Waltham, Mass., USA) with […]. Kd values were determined from the sigmoidal dose response curves with the software Quattro Workflow (Quattro GmbH, Munich, Germany).

CDK9/Cyclin K = molecular target: T2, CDK9/Cyclin K (Homo sapiens, UniProt P50750); assay: LanthaScreen Eu Kinase Binding Assay, CDK9/Cyclin K; details: tracer 236, read-out: CDK9/Cyclin K (activity range), Kd
T2 construct: His; purchased Invitrogen
T2 sequence (P50750 whole entry): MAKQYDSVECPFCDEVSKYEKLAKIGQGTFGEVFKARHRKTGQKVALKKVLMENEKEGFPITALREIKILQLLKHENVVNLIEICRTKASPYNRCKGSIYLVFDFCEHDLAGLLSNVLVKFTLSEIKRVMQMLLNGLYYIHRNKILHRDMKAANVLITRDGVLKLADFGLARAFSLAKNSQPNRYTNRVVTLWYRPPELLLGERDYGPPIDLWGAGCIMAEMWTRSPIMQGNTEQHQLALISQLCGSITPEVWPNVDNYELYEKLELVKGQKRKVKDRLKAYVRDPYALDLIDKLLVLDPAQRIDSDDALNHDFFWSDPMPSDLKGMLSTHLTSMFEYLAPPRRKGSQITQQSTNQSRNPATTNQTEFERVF
T2 sequence (O75909 1-357 isoform O75909-1 partner): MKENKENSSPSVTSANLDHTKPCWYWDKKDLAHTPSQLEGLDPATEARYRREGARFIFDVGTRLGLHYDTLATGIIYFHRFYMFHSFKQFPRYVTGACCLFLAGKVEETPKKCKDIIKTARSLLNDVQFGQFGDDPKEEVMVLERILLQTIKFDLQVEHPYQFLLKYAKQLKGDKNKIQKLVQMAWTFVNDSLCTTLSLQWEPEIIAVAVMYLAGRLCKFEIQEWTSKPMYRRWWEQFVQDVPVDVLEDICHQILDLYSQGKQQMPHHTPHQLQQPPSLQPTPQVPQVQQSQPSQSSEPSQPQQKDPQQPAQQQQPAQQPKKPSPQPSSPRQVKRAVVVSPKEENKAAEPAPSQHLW
Protocol: as §1, §2

CDK2/CyclinA [1] = molecular target: T3, CDK2/CyclinA (Homo sapiens, UniProt P24941); assay: LanthaScreen Eu Kinase Binding Assay, CDK2; details: tracer 236, read-out: CDK2 (activity range), Kd
T3 construct: GST; purchased Proqinase
Protocol: as §1, §2

CDK9/Cyclin T1 = molecular target: T4, CDK9/Cyclin T1 (Homo sapiens, UniProt P50750); assay: LanthaScreen Eu Kinase Binding Assay, CDK9/Cyclin T1; details: tracer 236, read-out: CDK9/Cyclin T1 (activity range), Kd
T4 construct: His; purchased Invitrogen
T4 sequence (P50750 whole entry): as the sequence (P50750 whole entry) above
T4 sequence (O60563 whole entry partner): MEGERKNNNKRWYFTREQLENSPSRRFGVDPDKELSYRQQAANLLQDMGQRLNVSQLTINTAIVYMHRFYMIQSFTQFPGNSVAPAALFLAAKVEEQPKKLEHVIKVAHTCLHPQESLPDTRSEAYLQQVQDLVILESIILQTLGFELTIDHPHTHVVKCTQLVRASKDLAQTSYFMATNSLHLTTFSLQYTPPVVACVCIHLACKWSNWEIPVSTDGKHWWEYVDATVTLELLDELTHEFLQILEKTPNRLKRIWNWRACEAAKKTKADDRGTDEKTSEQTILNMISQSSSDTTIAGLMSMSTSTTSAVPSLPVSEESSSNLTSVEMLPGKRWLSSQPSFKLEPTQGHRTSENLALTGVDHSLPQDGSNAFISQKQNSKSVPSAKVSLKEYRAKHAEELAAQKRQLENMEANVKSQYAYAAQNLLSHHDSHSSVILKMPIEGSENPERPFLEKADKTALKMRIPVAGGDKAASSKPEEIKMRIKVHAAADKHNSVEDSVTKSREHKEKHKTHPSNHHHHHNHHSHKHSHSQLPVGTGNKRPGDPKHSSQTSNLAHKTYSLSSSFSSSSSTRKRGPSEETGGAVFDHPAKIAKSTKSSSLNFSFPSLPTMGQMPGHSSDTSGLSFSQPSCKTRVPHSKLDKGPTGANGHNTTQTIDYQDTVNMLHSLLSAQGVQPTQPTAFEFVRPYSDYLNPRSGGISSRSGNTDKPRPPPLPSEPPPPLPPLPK
Protocol: as §1, §2

CDK2/CyclinA [2] = molecular target: T3, CDK2/CyclinA; assay: Lance Ultra KinaSelect Assay, CDK2; type: biochemical; details: ATP 3 μM; read-out: CDK2 LANCE assay (activity range), IC50
Protocol: (§3) 2. Measurement of half maximal inhibitory concentration to CDKs This protocol describes how the Lance Ultra KinaSelect Assay was performed to determine half maximal inhibitory concentration (1050) of compounds of general formula (I) and CDK/Cyclin complexes. The principle behind this enzymatic assay is based upon the phosphorylation of the ULight-Peptide Substrat. It is detected by using a specific
(§4) EU-labeled anti-phospho peptide antibody. The binding of the Eu-labeled anti-phospho peptide antibody to the phosphorylated ULight labeled peptide gives rise to a FRET-signal. Binding of an inhibitor to the kinase prevents phosphorylation of the ULight-MBP Substrat, resulting in a loss of FRET.
(§5) The compounds of general formula (I) summarized in Table 5 were diluted from a 10 mM DMSO stock solution 1:10 in a total volume of 15 μL DMSO. This compound predilution was then serial diluted 1:3 over 8 steps in DMSO and briefly spun down. Each compound solution was now diluted 1:20 in Enzymatic Buffer (HEPES: 50 mM, pH: 7.5; MgCl2: 10 mM; EGTA: 1 mM; DTT: 2 mM; Tween-20: 0.01%), mixed thoroughly and spun down. For every sample, 2 μL of the diluted compound were mixed with 6 μL CDK/Cyclin/Substrat solution and 2 μL ATP solution in a well of a small volume 384 well plate (Corning Incorporated, Corning, N.Y., USA; order no. 3673). The CDK/Cyclin was diluted to the appropriate concentration (see Table 3) and the ATP concentration was adjusted to its […] for the CDK/Cyclin, which was 3 μM for CDK2/Cyclin A, 20 μM for CDK1/Cyclin B1, 25 μM for CDK7/Cyclin H and CDK9/Cyclin T1, 55 μM for CDK6/Cyclin D3, 90 μM for CDK4/Cyclin D1 and 125 μM for CDK9/Cyclin K. For negative controls, in each well 2 μL of DMSO solution (1% final DMSO assay concentration) was mixed with 6 μL substrate solution (50 nM ULight MBP final assay concentration) and 2 μL ATP solution (appropriate final concentration see Table 3). For positive controls, in each well 2 μL of DMSO solution (1% final DMSO assay concentration) was mixed with 6 μL CDK/Cyclin/Substrat (appropriate final concentration see Table 3) and 2 μL Tracer ATP solution (appropriate final concentration see Table 3). Positive and negative controls were calculated from at least 8 different sample wells. The 384 well plates were mixed in a Teleshaker plate mixer (Beckman Coulter, Brea, Calif., USA) at 2000 rpm for 40 sec, and incubated for 1 h at room temperature. Before reading, 10 μL the detection buffer (Lance Detection Buffer 1×; EDTA: […]; Eu-Anti-P-MBP: see Table 3) was added. The FRET signal was measured at 340 nm excitation, 665 nm and 615 nm emission (for the kinase tracer and LanthaScreen Eu-AB, respectively) with an Envision spectrophotometer (Perkin Elmer, Waltham, Mass., USA) with 50 μs delay and 300 μs integration time. IC50 values were determined from the sigmoidal dose response curves with the software Quattro Workflow (Quattro GmbH, Munich, Germany).

CDK9 = molecular target: T5, CDK9 (Homo sapiens, UniProt P50750); assay: Lance Ultra KinaSelect Assay, CDK9; type: biochemical; details: cyclin partner (T1 or K) not stated; read-out: CDK9 LANCE assay (activity range), IC50
T5 construct: purchased Invitrogen
T5 sequence (P50750 whole entry): as the sequence (P50750 whole entry) above
Protocol: as §3, §4, §5

T1 sequence (P50613 whole entry): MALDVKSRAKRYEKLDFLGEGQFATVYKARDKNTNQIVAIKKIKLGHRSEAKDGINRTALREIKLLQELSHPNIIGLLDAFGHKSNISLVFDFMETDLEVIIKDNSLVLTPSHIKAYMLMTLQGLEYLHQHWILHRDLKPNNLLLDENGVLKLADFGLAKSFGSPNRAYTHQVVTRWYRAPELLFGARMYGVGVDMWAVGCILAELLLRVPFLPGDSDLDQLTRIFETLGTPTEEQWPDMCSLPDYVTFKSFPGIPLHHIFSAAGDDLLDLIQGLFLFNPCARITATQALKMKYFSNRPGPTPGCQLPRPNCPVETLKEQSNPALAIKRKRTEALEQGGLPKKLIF
T1 sequence (P51946 whole entry partner): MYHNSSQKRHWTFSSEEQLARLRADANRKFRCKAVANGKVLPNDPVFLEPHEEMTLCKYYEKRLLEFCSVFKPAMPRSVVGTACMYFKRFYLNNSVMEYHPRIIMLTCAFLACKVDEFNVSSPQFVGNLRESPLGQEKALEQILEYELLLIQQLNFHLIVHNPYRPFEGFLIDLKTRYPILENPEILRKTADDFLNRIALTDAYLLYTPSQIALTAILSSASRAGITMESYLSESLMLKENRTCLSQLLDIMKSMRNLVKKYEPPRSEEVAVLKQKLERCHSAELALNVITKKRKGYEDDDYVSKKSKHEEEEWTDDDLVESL
T1 sequence (P51948 whole entry partner): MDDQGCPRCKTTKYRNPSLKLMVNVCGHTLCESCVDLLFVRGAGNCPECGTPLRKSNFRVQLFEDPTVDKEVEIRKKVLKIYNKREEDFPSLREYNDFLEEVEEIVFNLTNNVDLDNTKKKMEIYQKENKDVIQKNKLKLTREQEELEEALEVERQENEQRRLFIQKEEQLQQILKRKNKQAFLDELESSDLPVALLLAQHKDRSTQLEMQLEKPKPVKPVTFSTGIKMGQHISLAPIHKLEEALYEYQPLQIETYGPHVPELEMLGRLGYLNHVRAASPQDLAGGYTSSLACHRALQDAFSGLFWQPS

SMILES	Kd (CDK7/CyclinH/MAT1)	Kd (CDK9/Cyclin K)	Kd (CDK2/CyclinA [1])	Kd (CDK9/Cyclin T1)	IC50 (CDK2/CyclinA [2])	IC50 (CDK9)
NS(=O)(=O)Cc1cccc(Nc2ncnc(N3CCC[C@@H]3CO)n2)c1 [Compound B24, (R)-3-[(4-(2-(Hydroxymethyl)pyrrolidin-1-yl)-1,3,5-triazin-2-yl)amino]-benzenemethanesulfonamide]	> 10000 nM	1000 to 10000 nM	> 10000 nM	1000 to 10000 nM	–	–
NS(=O)(=O)Cc1cccc(Nc2ncnc(N3CCOCC3)n2)c1 [Compound B10, 3-[(4-(Morpholin-4-yl)-1,3,5-triazin-2-yl)amino]benzenemethane sulfonamide]	1000 to 10000 nM	100 to 1000 nM	1000 to 10000 nM	100 to 1000 nM	–	–
COC[C@@H]1CCCN1c1ncnc(Nc2cccc(CS(N)(=O)=O)c2)n1 [Compound B18, (S)-3-[(4-(2-(Methoxymethyl)pyrrolidin-1-yl)-1,3,5-triazin-2-yl)amino]benzenemethanesulfonamide]	> 10000 nM	> 10000 nM	> 10000 nM	1000 to 10000 nM	–	–
NS(=O)(=O)Cc1cccc(Nc2ncnc(N3CCC[C@H]3CO)n2)c1 [Compound B25, (S)-3-[(4-(2-(Hydroxymethyl)pyrrolidin-1-yl)-1,3,5-triazin-2-yl)amino]-benzenemethanesulfonamide]	> 10000 nM	1000 to 10000 nM	> 10000 nM	1000 to 10000 nM	–	–
NS(=O)(=O)Cc1cccc(Nc2ncnc(N3CCC[C@@H]3CN3CCCC3)n2)c1 [Compound B31, (R)-3-[(4-(2-((Pyrrolidin-1-yl)methyl)pyrrolidin-1-yl)-1,3,5-triazin-2-yl)amino]benzenemethanesulfonamide]	> 10000 nM	> 10000 nM	> 10000 nM	1000 to 10000 nM	–	–
COC[C@H]1CCN1c1ncnc(Nc2cccc(CS(N)(=O)=O)c2)n1 [Compound B35, (R)-3-[(4-(2-(Methoxymethyl)azetidin-1-yl)-1,3,5-triazin-2-yl)amino]-benzenemethanesulfonamide]	> 10000 nM	1000 to 10000 nM	> 10000 nM	100 to 1000 nM	–	–
NS(=O)(=O)Cc1cccc(Nc2ncnc(N3CCCC3CCc3ccccc3)n2)c1 (racemic) [Compound B27, rac-3-[(4-(2-(2-Phenylethyl)pyrrolidin-1-yl)-1,3,5-triazin-2-yl)amino]-benzenemethanesulfonamide]	> 10000 nM	1000 to 10000 nM	–	1000 to 10000 nM	–	–
COC(=O)[C@H]1CCCCN1c1ncnc(Nc2cccc(CS(N)(=O)=O)c2)n1 [Compound B6, (R)-Methyl 1-[4-((3-(Sulfamoylmethyl)phenyl)amino)-1,3,5-triazin-2-yl]piperidine-2-carboxylate]	> 10000 nM	100 to 1000 nM	–	< 100 nM	–	–
COC[C@H]1CCCCN1c1ncnc(Nc2cccc(CS(N)(=O)=O)c2)n1 [Compound B5, (R)-3-[(4-(2-Methoxymethylpiperidin-1-yl)-1,3,5-triazin-2-yl)amino]-benzenemethanesulfonamide]	> 10000 nM	100 to 1000 nM	> 10000 nM	100 to 1000 nM	–	–
NS(=O)(=O)Cc1cccc(Nc2ncnc(N3CCCCC3c3ccccc3)n2)c1 (racemic) [Compound B9, rac-3-[(4-(2-Phenylpiperidin-1-yl)-1,3,5-triazin-2-yl)amino]-benzenemethanesulfonamide]	> 10000 nM	100 to 1000 nM	–	100 to 1000 nM	–	–

Now from value to compound:

Kd (CDK7/CyclinH/MAT1)	Kd (CDK9/Cyclin K)	Kd (CDK2/CyclinA [1])	Kd (CDK9/Cyclin T1)	IC50 (CDK2/CyclinA [2])	IC50 (CDK9)	SMILES
> 10000 nM	< 100 nM	100 to 1000 nM	< 100 nM	–	–	NS(=O)(=O)Cc1cccc(Nc2ncnc(N3CCCc4ccccc43)n2)c1 [Compound B42, 3-[(4-(3,4-Dihydroquinolin-1(2H)-yl)-1,3,5-triazin-2-yl)amino]-benzenemethanesulfonamide]
> 10000 nM	< 100 nM	100 to 1000 nM	< 100 nM	–	–	NS(=O)(=O)Cc1cccc(Nc2ncnc(N3CCc4ccccc43)n2)c1 [Compound B52, 3-[(4-(Indolin-1-yl)-1,3,5-triazin-2-yl)amino]-benzenemethane sulfonamide]
> 10000 nM	–	1000 to 10000 nM	< 100 nM	1000 to 10000 nM	100 to 1000 nM	C[C@H]1CCCN1c1ncnc(Nc2cccc(CS(N)(=O)=O)c2)n1 [Compound B53, (S)-3-[(4-(2-Methylpyrrolidin-1-yl)-1,3,5-triazin-2-yl)amino]-benzenemethanesulfonamide]
> 10000 nM	1000 to 10000 nM	–	1000 to 10000 nM	–	–	NS(=O)(=O)Cc1cccc(Nc2ncnc(N3CCc4ccccc4C3)n2)c1 [Compound B40, 3-[(4-(3,4-Dihydroisoquinolin-2(1H)-yl)-1,3,5-triazin-2-yl)amino]-benzenemethanesulfonamide]
1000 to 10000 nM	100 to 1000 nM	–	100 to 1000 nM	–	–	NS(=O)(=O)Cc1cccc(Nc2ncnc(N3CCc4sccc4C3)n2)c1 [Compound B43, 3-[(4-(6,7-Dihydrothieno[3,2-c]pyridin-5(4H)-yl)-1,3,5-triazin-2-yl)amino]benzenemethanesulfonamide]
> 10000 nM	–	1000 to 10000 nM	100 to 1000 nM	1000 to 10000 nM	1000 to 10000 nM	NS(=O)(=O)Cc1cccc(Nc2ncnc(N3CCC[C@@H]3C(F)(F)F)n2)c1 [Compound B54, (R)-3-[(4-(2-(Trifluoromethyl)pyrrolidin-1-yl)-1,3,5-triazin-2-yl)amino]-benzenemethanesulfonamide]

— US9226929B2, “Pharmaceutically active disubstituted triazine derivatives” (Bayer Intellectual Property GMBH, priority 2011, dated 2016)
